In ChEMBL document CHEMBL5150011, “Selection of QPX7831, an Orally Bioavailable Prodrug of Boronic Acid β-Lactamase Inhibitor QPX7728” (J Med Chem, 2021):

Legend:
[1] = Half life in human serum measured upto 30 min by HPLC analysis; type: ADME, cell-free
[2] = Half life in human liver microsomes measured upto 30 min in presence of NADPH by HPLC analysis; type: ADME, Microsome
[3] = Half life in rat liver microsomes measured upto 30 min in presence of NADPH by HPLC analysis; type: ADME, Microsome
[4] = Half life in dog liver microsomes measured upto 30 min in presence of NADPH by HPLC analysis; type: ADME, Canis lupus familiaris, Microsome
[5] = Half life in monkey liver microsomes measured upto 30 min in presence of NADPH by HPLC analysis; type: ADME, Macaca mulatta, Microsome; details: rhesus monkey
[6] = Oral bioavailability in rat at 30 mg/kg by LC/MS/MS analysis; type: ADME, organism-based; details: in vivo
[7] = Oral bioavailability in dog at 10 mg/kg by LC/MS/MS analysis; type: ADME, organism-based, Canis lupus familiaris; details: in vivo
[8] = Oral bioavailability in monkey at 20 mg/kg by LC/MS/MS analysis; type: ADME, organism-based, Macaca mulatta; details: rhesus monkey, in vivo
[9] = Solubility of compound in water at pH 7.2 using crystalline sample; type: physicochemical
[10] = Solubility of compound in water in presence of 0.5 M PBS at pH 7.0 using crystalline sample; type: physicochemical; details: water with 0.5 M PBS
[11] = Solubility of the compound in FaSSIF using crystalline sample; type: physicochemical
[12] = Solubility of the compound in FeSSIF using crystalline sample; type: physicochemical
[13] = Lipophilicity, logD of compound at pH 7.4; type: physicochemical; details: buffer
[14] = Acid dissociation constant, pKa of the compound; type: physicochemical
[15] = Oral bioavailability in rat; type: ADME, organism-based; details: in vivo
[16] = Oral bioavailability in dog; type: ADME, organism-based, Canis lupus familiaris; details: in vivo
[17] = Oral bioavailability in monkey; type: ADME, organism-based, Macaca mulatta; details: rhesus monkey, in vivo

Row | half-life [1] | half-life [2] | SMILES | also measured
1 | > 60 min | 27 min | O=C(OCOC(=O)c1c(F)ccc2c1OB(O)[C@@H]1C[C@H]21)OC1CCCCC1 | 
2 | > 60 min | 28 min | CCCC(=O)OCOC(=O)c1c(F)ccc2c1OB(O)[C@@H]1C[C@H]21 | half-life [3]: 3 min; half-life [4]: 11 min; half-life [5]: 2 min; bioavailability [6]: 145%; bioavailability [7]: 55.6%; bioavailability [8]: 104%
3 | > 60 min | > 30 min | COCCOC(=O)OCOC(=O)c1c(F)ccc2c1OB(O)[C@@H]1C[C@H]21 | 
4 | 3.9 min |  | O=C(OCOC(=O)C1COC1)c1c(F)ccc2c1OB(O)[C@@H]1C[C@H]21 | 
5 | 3.7 min | > 30 min | Cc1oc(=O)oc1COC(=O)c1c(F)ccc2c1OB(O)[C@@H]1C[C@H]21 | 
6 | 11 min | > 30 min | O=C(OCOC(=O)c1c(F)ccc2c1OB(O)[C@@H]1C[C@H]21)OC1COC1 | 
7 | 26 min | 23 min | O=C(OCOC(=O)C1CCOCC1)c1c(F)ccc2c1OB(O)[C@@H]1C[C@H]21 | 

The next lines start with the compound.

Row | SMILES | half-life [1] | half-life [2] | also measured
8 | CC(C)OC(=O)OCOC(=O)c1c(F)ccc2c1OB(O)[C@@H]1C[C@H]21 |  | > 30 min | 
9 | CN(C)C(=O)COC(=O)OCOC(=O)c1c(F)ccc2c1OB(O)[C@@H]1C[C@H]21 | > 60 min | > 30 min | 
10 | CC(=O)N1CCC[C@@H]1C(=O)OCOC(=O)c1c(F)ccc2c1OB(O)[C@@H]1C[C@H]21 | > 30 min | > 30 min | 
11 | CC(=O)OCCOC(=O)OCOC(=O)c1c(F)ccc2c1OB(O)[C@@H]1C[C@H]21 | > 30 min | 24 min | 
12 | CCOC(=O)OCOC(=O)c1c(F)ccc2c1OB(O)[C@@H]1C[C@H]21 | > 60 min | > 30 min | 
13 | CN(C)C(=O)COC(=O)c1c(F)ccc2c1OB(O)[C@@H]1C[C@H]21 | > 60 min | > 30 min | 
14 | CC(=O)OCOC(=O)c1c(F)ccc2c1OB(O)[C@@H]1C[C@H]21 | > 30 min | 8 min | half-life [3]: 3 min; half-life [4]: 15 min; half-life [5]: 3 min; bioavailability [6]: 131%; bioavailability [7]: 50.1%; bioavailability [8]: 103%
15 | O=C(OCOC(=O)C1CC1)c1c(F)ccc2c1OB(O)[C@@H]1C[C@H]21 | > 60 min | 14.3 min | 
16 | O=C(OCOC(=O)c1c(F)ccc2c1OB(O)[C@@H]1C[C@H]21)OC1CCOCC1 | > 30 min | > 30 min | 
17 | CC(C)C(=O)OCOC(=O)c1c(F)ccc2c1OB(O)[C@@H]1C[C@H]21 | > 60 min | 9 min | half-life [3]: 5 min; half-life [4]: 23 min; half-life [5]: 2 min; bioavailability [6]: 125%; bioavailability [7]: 65%; bioavailability [8]: 106%
18 | CC(C)C(=O)OCOC(=O)c1c(F)ccc2c1O[B-](O)(O)[C@@H]1C[C@H]21.[Na+] |  |  | solubility [9]: > 100 mg/mL; solubility thermodynamic [10]: 10.6 mg/mL; solubility thermodynamic [11]: > 100 mg/mL; solubility thermodynamic [12]: > 100 mg/mL; logD [13]: 0.33; pKa [14]: 4.8
19 | O=C(O)c1c(F)ccc2c1OB(O)[C@@H]1C[C@H]21 [XERUBORBACTAM] |  |  | bioavailability [15]: 50%; bioavailability [16]: 50%; bioavailability [17]: 20%
